Data as given in patent US8426408B2, “Pyrimidine inhibitors of kinases” (AbbVie Inc., priority 2009, dated 2013).

Target: KDR (Homo sapiens, UniProt P35968)
Assay: KDR cellular assay (KDR receptor phosphorylation ELISA)
Assay type: cell-based
Parameters: expressed in transfected cells; host or cells: 3T3 (embryonic mouse) cells
Details: KDR transfected 3T3 (embryonic mouse) cells, VEGF stimulated; read-out: IC50 inhibition of KDR phosphorylation
Summary of the method: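 KDR-transfected mouse 3T3 cells treated 20 min at 37° C with half-log compound dilutions, then stimulated 10 min with VEGF (100 ng/ml solution). Lysates captured on anti-KDR plates; phosphorylation by biotin antibody/streptavidin-HRP ELISA at 450 nm. IC50 by non-linear regression.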

Sequence of KDR (P35968 20-1356): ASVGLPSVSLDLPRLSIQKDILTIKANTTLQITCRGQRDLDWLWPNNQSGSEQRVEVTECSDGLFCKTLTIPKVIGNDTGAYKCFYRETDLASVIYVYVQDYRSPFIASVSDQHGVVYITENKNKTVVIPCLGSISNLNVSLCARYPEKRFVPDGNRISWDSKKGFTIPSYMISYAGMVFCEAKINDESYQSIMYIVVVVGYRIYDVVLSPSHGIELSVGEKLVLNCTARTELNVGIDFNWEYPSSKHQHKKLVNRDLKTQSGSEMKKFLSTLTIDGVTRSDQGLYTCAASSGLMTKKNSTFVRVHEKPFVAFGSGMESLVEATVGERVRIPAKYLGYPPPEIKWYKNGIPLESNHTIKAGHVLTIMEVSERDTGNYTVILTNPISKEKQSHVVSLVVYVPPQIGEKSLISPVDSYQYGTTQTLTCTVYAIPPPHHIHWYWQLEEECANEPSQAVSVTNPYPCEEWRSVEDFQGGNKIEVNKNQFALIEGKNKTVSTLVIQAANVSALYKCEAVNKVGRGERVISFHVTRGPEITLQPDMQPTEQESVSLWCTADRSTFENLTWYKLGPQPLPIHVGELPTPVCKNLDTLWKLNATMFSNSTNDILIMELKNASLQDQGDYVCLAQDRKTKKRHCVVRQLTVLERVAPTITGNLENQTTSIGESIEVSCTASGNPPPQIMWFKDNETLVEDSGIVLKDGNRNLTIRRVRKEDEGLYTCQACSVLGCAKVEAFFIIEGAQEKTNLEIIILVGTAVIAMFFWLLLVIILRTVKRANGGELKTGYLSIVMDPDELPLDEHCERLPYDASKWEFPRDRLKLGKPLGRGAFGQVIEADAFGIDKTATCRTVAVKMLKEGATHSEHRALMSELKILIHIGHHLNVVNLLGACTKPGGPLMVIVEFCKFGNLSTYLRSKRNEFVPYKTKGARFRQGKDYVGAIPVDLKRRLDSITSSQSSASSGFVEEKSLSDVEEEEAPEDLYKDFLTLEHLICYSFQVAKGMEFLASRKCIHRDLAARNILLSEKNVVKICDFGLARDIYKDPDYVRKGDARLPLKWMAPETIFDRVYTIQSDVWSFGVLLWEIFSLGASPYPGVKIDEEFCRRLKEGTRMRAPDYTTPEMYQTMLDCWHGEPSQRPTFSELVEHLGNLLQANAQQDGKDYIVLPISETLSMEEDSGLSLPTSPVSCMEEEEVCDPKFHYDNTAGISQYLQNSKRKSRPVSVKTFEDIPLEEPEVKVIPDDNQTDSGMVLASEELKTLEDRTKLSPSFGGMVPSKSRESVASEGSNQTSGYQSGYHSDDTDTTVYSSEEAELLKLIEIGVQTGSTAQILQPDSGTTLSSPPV

SMILES	IC50 [nM]
Cn1cc(Nc2ncc(C(F)(F)F)c(Nc3ccccc3C3(O)CCC3)n2)cn1 [Example 115, 1-[2-({2-[(1-methyl-1H-pyrazol-4-yl)amino]-5-(trifluoromethyl)pyrimidin-4-yl}amino)phenyl]cyclobutanol]	100 to 1000
CS(=O)(=O)CCn1cc(Nc2ncc(Cl)c(N[C@H]3[C@@H](C(N)=O)[C@@H]4C=C[C@H]3C4)n2)cn1 [Example 119, (1S,2S,3R,4R)-3-{[5-chloro-2-({1-[2-(methylsulfonyl)ethyl]-1H-pyrazol-4-yl}amino)pyrimidin-4-yl]amino}bicyclo[2.2.1]hept-5-ene-2-carboxamide]	100 to 1000
NC(=O)[C@@H]1[C@H](Nc2nc(Nc3cnn(C[C@H](O)CO)c3)ncc2Cl)[C@H]2C=C[C@@H]1C2 [Example 124, (1S,2S,3R,4R)-3-{[5-chloro-2-({1-[(2S)-2,3-dihydroxypropyl]-1H-pyrazol-4-yl}amino)pyrimidin-4-yl]amino}bicyclo[2.2.1]hept-5-ene-2-carboxamide]	100 to 1000
NC(=O)[C@@H]1[C@H](Nc2nc(Nc3cnn(C[C@@H](O)CO)c3)ncc2Cl)[C@H]2C=C[C@@H]1C2 [Example 130, (1S,2S,3R,4R)-3-{[5-chloro-2-({1-[(2R)-2,3-dihydroxypropyl]-1H-pyrazol-4-yl}amino)pyrimidin-4-yl]amino}bicyclo[2.2.1]hept-5-ene-2-carboxamide]	100 to 1000
NC(=O)[C@@H]1[C@H](Nc2nc(Nc3cnn(C[C@H](O)CO)c3)ncc2Br)[C@H]2C=C[C@@H]1C2 [Example 131, (1S,2S,3R,4R)-3-{[5-bromo-2-({1-[(2S)-2,3-dihydroxypropyl]-1H-pyrazol-4-yl}amino)pyrimidin-4-yl]amino}bicyclo[2.2.1]hept-5-ene-2-carboxamide]	100 to 1000
Cn1cc(Nc2ncc(Br)c(Nc3ccccc3C3(O)CCC3)n2)cn1 [Example 132, 1-[2-({5-bromo-2-[(1-methyl-1H-pyrazol-4-yl)amino]pyrimidin-4-yl}amino)phenyl]cyclobutanol]	100 to 1000
Cc1nn(C)cc1Nc1ncc(Cl)c(N[C@H]2[C@@H](C(N)=O)[C@@H]3C=C[C@H]2C3)n1 [Example 134, (1S,2S,3R,4R)-3-({5-chloro-2-[(1,3-dimethyl-1H-pyrazol-4-yl)amino]pyrimidin-4-yl}amino)bicyclo[2.2.1]hept-5-ene-2-carboxamide]	100 to 1000
Cn1cc(Nc2ncc([N+](=O)[O-])c(N[C@H]3[C@@H](C(N)=O)[C@@H]4C=C[C@H]3C4)n2)cn1 [Example 139, (1S,2S,3R,4R)-3-({2-[(1-methyl-1H-pyrazol-4-yl)amino]-5-nitropyrimidin-4-yl}amino)bicyclo[2.2.1]hept-5-ene-2-carboxamide]	100 to 1000
CCn1cc(Nc2ncc([N+](=O)[O-])c(N[C@H]3[C@@H](C(N)=O)[C@@H]4C=C[C@H]3C4)n2)cn1 [Example 140, (1S,2S,3R,4R)-3-({2-[(1-ethyl-1H-pyrazol-4-yl)amino]-5-nitropyrimidin-4-yl}amino)bicyclo[2.2.1]hept-5-ene-2-carboxamide]	100 to 1000
NC(=O)[C@@H]1[C@H](Nc2nc(Nc3cnn(CCc4ccccc4)c3)ncc2Br)[C@H]2C=C[C@@H]1C2 [Example 148, (1S,2S,3R,4R)-3-[(5-bromo-2-{[1-(2-phenylethyl)-1H-pyrazol-4-yl]amino}pyrimidin-4-yl)amino]bicyclo[2.2.1]hept-5-ene-2-carboxamide]	< 100
NC(=O)[C@@H]1[C@H](Nc2nc(Nc3cnn(Cc4ccccc4)c3)ncc2Br)[C@H]2C=C[C@@H]1C2 [Example 149, (1S,2S,3R,4R)-3-({2-[(1-benzyl-1H-pyrazol-4-yl)amino]-5-bromopyrimidin-4-yl}amino)bicyclo[2.2.1]hept-5-ene-2-carboxamide]	< 100
Cn1cc(Nc2ncc(C(F)(F)F)c(Nc3ccsc3C(N)=O)n2)cn1 [Example 150, 3-({2-[(1-methyl-1H-pyrazol-4-yl)amino]-5-(trifluoromethyl)pyrimidin-4-yl}amino)thiophene-2-carboxamide]	100 to 1000
COc1cccc(CCn2cc(Nc3ncc(Cl)c(N[C@H]4[C@@H](C(N)=O)[C@@H]5C=C[C@H]4C5)n3)cn2)c1 [Example 154, (1S,2S,3R,4R)-3-{[5-chloro-2-({1-[2-(3-methoxyphenyl)ethyl]-1H-pyrazol-4-yl}amino)pyrimidin-4-yl]amino}bicyclo[2.2.1]hept-5-ene-2-carboxamide]	100 to 1000
COc1cccc(Cn2cc(Nc3ncc(Cl)c(N[C@H]4[C@@H](C(N)=O)[C@@H]5C=C[C@H]4C5)n3)cn2)c1 [Example 155, (1S,2S,3R,4R)-3-[(5-chloro-2-{[1-(3-methoxybenzyl)-1H-pyrazol-4-yl]amino}pyrimidin-4-yl)amino]bicyclo[2.2.1]hept-5-ene-2-carboxamide]	< 100
NC(=O)[C@@H]1[C@H](Nc2nc(Nc3cnn(Cc4cccc(Cl)c4)c3)ncc2Cl)[C@H]2C=C[C@@H]1C2 [Example 157, (1S,2S,3R,4R)-3-[(5-chloro-2-{[1-(3-chlorobenzyl)-1H-pyrazol-4-yl]amino}pyrimidin-4-yl)amino]bicyclo[2.2.1]hept-5-ene-2-carboxamide]	< 100
NC(=O)[C@@H]1[C@H](Nc2nc(Nc3cnn(CCc4cccc(Cl)c4)c3)ncc2Cl)[C@H]2C=C[C@@H]1C2 [Example 158, (1S,2S,3R,4R)-3-{[5-chloro-2-({1-[2-(3-chlorophenyl)ethyl]-1H-pyrazol-4-yl}amino)pyrimidin-4-yl]amino}bicyclo[2.2.1]hept-5-ene-2-carboxamide]	100 to 1000
COc1cccc(Cn2cc(Nc3ncc(Br)c(N[C@H]4[C@@H](C(N)=O)[C@@H]5C=C[C@H]4C5)n3)cn2)c1 [Example 159, (1S,2S,3R,4R)-3-[(5-bromo-2-{[1-(3-methoxybenzyl)-1H-pyrazol-4-yl]amino}pyrimidin-4-yl)amino]bicyclo[2.2.1]hept-5-ene-2-carboxamide]	< 100

Second part, the compound after the results:

IC50 [nM]	SMILES
< 100	CC(C)CCn1cc(Nc2ncc(Br)c(N[C@H]3[C@@H](C(N)=O)[C@@H]4C=C[C@H]3C4)n2)cn1 [Example 111, (1S,2S,3R,4R)-3-[(5-bromo-2-{[1-(3-methylbutyl)-1H-pyrazol-4-yl]amino}pyrimidin-4-yl)amino]bicyclo[2.2.1]hept-5-ene-2-carboxamide]
< 100	CC(C)n1cc(Nc2ncc(Br)c(N[C@H]3[C@@H](C(N)=O)[C@@H]4C=C[C@H]3C4)n2)cn1 [Example 112, (1S,2S,3R,4R)-3-({5-bromo-2-[(1-isopropyl-1H-pyrazol-4-yl)amino]pyrimidin-4-yl}amino)bicyclo[2.2.1]hept-5-ene-2-carboxamide]
< 100	NC(=O)[C@@H]1[C@H](Nc2nc(Nc3cnn([C@@H]4CCOC4)c3)ncc2Br)[C@H]2C=C[C@@H]1C2 [Example 116, (1S,2S,3R,4R)-3-{[5-bromo-2-({1-[(3R)-tetrahydrofuran-3-yl]-1H-pyrazol-4-yl}amino)pyrimidin-4-yl]amino}bicyclo[2.2.1]hept-5-ene-2-carboxamide]
< 100	NC(=O)[C@@H]1[C@H](Nc2nc(Nc3cnn([C@H]4CCOC4)c3)ncc2Br)[C@H]2C=C[C@@H]1C2 [Example 117, (1S,2S,3R,4R)-3-{[5-bromo-2-({1-[(3S)-tetrahydrofuran-3-yl]-1H-pyrazol-4-yl}amino)pyrimidin-4-yl]amino}bicyclo[2.2.1]hept-5-ene-2-carboxamide]
< 100	NC(=O)[C@@H]1[C@H](Nc2nc(Nc3cnn(C4CCC4)c3)ncc2Cl)[C@H]2C=C[C@@H]1C2 [Example 118, (1S,2S,3R,4R)-3-({5-chloro-2-[(1-cyclobutyl-1H-pyrazol-4-yl)amino]pyrimidin-4-yl}amino)bicyclo[2.2.1]hept-5-ene-2-carboxamide]
< 100	CS(=O)(=O)CCn1cc(Nc2ncc(Br)c(N[C@H]3[C@@H](C(N)=O)[C@@H]4C=C[C@H]3C4)n2)cn1 [Example 122, (1S,2S,3R,4R)-3-{[5-bromo-2-({1-[2-(methylsulfonyl)ethyl]-1H-pyrazol-4-yl}amino)pyrimidin-4-yl]amino}bicyclo[2.2.1]hept-5-ene-2-carboxamide]
< 100	NC(=O)[C@@H]1[C@H](Nc2nc(Nc3cnn(C4CCC4)c3)ncc2Br)[C@H]2C=C[C@@H]1C2 [Example 123, (1S,2S,3R,4R)-3-({5-bromo-2-[(1-cyclobutyl-1H-pyrazol-4-yl)amino]pyrimidin-4-yl}amino)bicyclo[2.2.1]hept-5-ene-2-carboxamide]
< 100	NC(=O)[C@@H]1[C@H](Nc2nc(Nc3cnn(CC4CCO4)c3)ncc2Cl)[C@H]2C=C[C@@H]1C2 (stereo partly drawn) [Example 129, (1S,2S,3R,4R)-3-[(5-chloro-2-{[1-(oxetan-2-ylmethyl)-1H-pyrazol-4-yl]amino}pyrimidin-4-yl)amino]bicyclo[2.2.1]hept-5-ene-2-carboxamide]
< 100	Cc1nn(C)cc1Nc1ncc(Br)c(N[C@H]2[C@@H](C(N)=O)[C@@H]3C=C[C@H]2C3)n1 [Example 135, (1S,2S,3R,4R)-3-({5-bromo-2-[(1,3-dimethyl-1H-pyrazol-4-yl)amino]pyrimidin-4-yl}amino)bicyclo[2.2.1]hept-5-ene-2-carboxamide]
< 100	NC(=O)[C@@H]1[C@H](Nc2nc(Nc3cnn(CCc4ccccc4)c3)ncc2Cl)[C@H]2C=C[C@@H]1C2 [Example 143, (1S,2S,3R,4R)-3-[(5-chloro-2-{[1-(2-phenylethyl)-1H-pyrazol-4-yl]amino}pyrimidin-4-yl)amino]bicyclo[2.2.1]hept-5-ene-2-carboxamide]
< 100	NC(=O)[C@@H]1[C@H](Nc2nc(Nc3cnn(Cc4ccccc4)c3)ncc2Cl)[C@H]2C=C[C@@H]1C2 [Example 144, (1S,2S,3R,4R)-3-({2-[(1-benzyl-1H-pyrazol-4-yl)amino]-5-chloropyrimidin-4-yl}amino)bicyclo[2.2.1]hept-5-ene-2-carboxamide]
